Laboratory results: the kinase profiling compilation of Christmann-Franck et al. (2016)

How the values were obtained:
Assay in all cases: radiometric filter-binding kinase assay, Kinase HotSpot
Settings in all cases: compound 0.5 µM; ATP 10 µM
DMPK (human) = DMPK (human) (UniProt Q09013)
FGR (human) = FGR (human) (UniProt P09769)
FRK (human) = FRK (human) (UniProt P42685)
STK4 (human) = STK4 (human) (UniProt Q13043)
BRSK2 (human) = BRSK2 (human) (UniProt Q8IWQ3)
NEK4 (human) = NEK4 (human) (UniProt P51957)
NEK4 (human), sequence (P51957 whole entry, looked up): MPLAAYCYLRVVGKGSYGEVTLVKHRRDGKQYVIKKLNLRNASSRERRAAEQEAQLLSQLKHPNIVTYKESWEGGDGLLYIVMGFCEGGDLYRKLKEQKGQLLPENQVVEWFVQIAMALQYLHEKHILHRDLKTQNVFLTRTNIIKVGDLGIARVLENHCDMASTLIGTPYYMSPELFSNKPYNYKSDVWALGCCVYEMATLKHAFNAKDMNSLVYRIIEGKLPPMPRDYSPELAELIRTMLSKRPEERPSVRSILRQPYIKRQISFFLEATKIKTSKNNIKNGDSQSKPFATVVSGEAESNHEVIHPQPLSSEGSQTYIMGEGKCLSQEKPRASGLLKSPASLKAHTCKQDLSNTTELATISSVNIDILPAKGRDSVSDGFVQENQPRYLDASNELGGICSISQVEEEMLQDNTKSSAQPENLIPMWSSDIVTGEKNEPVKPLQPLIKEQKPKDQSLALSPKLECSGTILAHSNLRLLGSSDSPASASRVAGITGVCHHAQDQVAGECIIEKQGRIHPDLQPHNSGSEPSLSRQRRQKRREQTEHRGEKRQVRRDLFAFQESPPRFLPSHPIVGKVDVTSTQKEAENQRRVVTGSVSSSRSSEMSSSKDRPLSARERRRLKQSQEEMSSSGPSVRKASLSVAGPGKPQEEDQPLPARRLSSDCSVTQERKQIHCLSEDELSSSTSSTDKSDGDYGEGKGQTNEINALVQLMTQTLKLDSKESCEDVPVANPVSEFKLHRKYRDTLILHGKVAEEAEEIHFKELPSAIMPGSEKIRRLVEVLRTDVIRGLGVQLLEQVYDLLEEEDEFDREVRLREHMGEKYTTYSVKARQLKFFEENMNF

DAPK3 (human) = DAPK3 (human) (UniProt O43293)
NEK1 (human) = NEK1 (human) (UniProt Q96PY6)
CSK (human) = CSK (human) (UniProt P41240)
CSK (human), sequence (P41240 whole entry, looked up): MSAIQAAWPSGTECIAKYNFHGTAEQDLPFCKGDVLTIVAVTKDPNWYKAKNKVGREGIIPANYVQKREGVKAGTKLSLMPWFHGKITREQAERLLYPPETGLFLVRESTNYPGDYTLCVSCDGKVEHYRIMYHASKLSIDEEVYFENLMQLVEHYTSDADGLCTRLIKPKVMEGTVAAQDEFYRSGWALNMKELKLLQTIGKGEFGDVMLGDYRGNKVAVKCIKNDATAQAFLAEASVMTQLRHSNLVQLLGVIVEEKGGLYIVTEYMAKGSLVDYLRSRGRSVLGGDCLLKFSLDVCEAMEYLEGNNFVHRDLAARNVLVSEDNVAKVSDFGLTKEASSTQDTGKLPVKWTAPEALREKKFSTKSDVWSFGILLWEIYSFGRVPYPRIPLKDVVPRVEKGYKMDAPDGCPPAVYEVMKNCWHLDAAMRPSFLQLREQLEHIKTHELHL

ROCK1 (human) = ROCK1 (human) (UniProt Q13464)
NTRK2 (human) = NTRK2 (human) (UniProt Q16620)
CLK2 (human) = CLK2 (human) (UniProt P49760)
HIPK4 (human) = HIPK4 (human) (UniProt Q8NE63)
MAP3K10 (human) = MAP3K10 (human) (UniProt Q02779)
CSNK1D (human) = CSNK1D (human) (UniProt P48730)
CSNK1D (human), sequence (P48730 whole entry, looked up): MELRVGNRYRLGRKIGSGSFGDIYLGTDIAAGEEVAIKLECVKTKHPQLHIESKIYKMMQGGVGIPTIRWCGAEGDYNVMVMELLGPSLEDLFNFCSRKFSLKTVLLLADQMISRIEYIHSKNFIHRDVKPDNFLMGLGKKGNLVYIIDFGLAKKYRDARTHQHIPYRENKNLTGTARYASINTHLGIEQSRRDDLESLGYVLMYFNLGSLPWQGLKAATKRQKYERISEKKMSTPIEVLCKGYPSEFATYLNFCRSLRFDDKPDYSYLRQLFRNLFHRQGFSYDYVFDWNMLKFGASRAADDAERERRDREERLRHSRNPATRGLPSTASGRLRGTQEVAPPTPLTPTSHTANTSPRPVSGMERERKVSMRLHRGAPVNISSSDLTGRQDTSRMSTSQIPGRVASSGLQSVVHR

EPHA5 (human) = EPHA5 (human) (UniProt P54756)
EPHA5 (human), sequence (P54756 whole entry, looked up): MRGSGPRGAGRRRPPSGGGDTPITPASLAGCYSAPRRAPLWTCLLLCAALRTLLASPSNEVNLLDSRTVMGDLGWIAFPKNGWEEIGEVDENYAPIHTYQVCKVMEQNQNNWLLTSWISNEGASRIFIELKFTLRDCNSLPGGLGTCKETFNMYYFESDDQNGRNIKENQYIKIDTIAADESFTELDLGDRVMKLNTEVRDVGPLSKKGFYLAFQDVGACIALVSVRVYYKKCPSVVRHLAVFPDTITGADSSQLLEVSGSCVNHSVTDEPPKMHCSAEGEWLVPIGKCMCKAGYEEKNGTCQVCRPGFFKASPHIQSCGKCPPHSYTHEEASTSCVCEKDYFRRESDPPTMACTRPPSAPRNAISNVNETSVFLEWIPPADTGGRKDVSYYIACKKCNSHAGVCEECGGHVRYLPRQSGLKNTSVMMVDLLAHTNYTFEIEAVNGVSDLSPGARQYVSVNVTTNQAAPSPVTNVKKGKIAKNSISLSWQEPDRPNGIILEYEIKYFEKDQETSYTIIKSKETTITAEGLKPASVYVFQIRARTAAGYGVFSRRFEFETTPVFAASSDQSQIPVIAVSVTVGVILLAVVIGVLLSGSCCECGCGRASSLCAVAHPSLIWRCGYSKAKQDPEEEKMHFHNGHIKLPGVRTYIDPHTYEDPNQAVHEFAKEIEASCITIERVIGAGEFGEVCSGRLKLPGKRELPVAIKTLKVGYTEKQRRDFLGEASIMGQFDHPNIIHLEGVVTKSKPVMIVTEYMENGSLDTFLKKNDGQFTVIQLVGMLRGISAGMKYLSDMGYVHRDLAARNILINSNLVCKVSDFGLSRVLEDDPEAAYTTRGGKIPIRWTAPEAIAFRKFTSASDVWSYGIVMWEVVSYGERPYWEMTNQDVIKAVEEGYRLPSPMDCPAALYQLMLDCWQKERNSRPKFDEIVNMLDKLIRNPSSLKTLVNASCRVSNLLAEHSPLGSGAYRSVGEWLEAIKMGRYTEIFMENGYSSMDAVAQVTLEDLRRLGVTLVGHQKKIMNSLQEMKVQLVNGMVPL

CHEK2 (human) = CHEK2 (human) (UniProt O96017)
STK24 (human) = STK24 (human) (UniProt Q9Y6E0)
STK24 (human), sequence (Q9Y6E0 whole entry, looked up): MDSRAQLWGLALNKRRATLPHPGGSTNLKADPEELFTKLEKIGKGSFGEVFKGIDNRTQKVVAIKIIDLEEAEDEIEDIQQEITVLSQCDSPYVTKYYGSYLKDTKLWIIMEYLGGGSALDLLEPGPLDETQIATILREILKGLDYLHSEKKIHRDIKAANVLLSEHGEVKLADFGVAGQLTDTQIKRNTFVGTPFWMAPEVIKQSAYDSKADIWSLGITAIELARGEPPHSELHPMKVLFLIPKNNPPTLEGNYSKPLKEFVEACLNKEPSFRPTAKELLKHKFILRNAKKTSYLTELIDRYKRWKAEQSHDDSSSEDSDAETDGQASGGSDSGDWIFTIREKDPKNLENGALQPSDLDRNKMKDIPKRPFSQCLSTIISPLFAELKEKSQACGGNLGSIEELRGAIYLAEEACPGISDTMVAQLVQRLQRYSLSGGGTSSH

HIPK2 (human) = HIPK2 (human) (UniProt Q9H2X6)
GSK3B (human) = GSK3B (human) (UniProt P49841)
PRKCB1 (human) = PRKCB1 (human) (UniProt P05771)
PRKCD (human) = PRKCD (human) (UniProt Q05655)
ERBB2 (human) = ERBB2 (human) (UniProt P04626)
FES (human) = FES (human) (UniProt P07332)
PRKCH (human) = PRKCH (human) (UniProt P24723)
PRKCH (human), sequence (P24723 whole entry, looked up): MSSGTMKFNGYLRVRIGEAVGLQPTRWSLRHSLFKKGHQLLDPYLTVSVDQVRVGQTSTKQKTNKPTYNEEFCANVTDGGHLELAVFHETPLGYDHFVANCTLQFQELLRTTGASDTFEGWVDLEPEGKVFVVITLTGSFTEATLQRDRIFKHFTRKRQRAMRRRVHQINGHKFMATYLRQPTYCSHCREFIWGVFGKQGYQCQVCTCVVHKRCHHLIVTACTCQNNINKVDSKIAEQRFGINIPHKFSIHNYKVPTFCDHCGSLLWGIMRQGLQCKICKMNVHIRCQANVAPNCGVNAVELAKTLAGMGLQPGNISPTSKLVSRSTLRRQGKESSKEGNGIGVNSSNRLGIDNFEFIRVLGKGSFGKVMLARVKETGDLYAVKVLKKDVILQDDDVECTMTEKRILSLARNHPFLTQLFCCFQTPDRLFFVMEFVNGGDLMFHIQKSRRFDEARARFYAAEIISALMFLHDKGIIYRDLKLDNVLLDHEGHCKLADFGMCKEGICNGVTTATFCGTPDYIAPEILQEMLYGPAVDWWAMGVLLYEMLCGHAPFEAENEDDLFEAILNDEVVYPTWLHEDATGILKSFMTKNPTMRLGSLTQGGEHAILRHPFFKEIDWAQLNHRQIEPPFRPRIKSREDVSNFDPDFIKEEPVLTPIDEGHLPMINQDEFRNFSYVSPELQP

JAK2 JH1 JH2 (human) = JAK2 JH1 JH2 (human) (UniProt O60674)
WEE1 (human) = WEE1 (human) (UniProt P30291)
PRKCI (human) = PRKCI (human) (UniProt P41743)
BMX (human) = BMX (human) (UniProt P51813)
STK10 (human) = STK10 (human) (UniProt O94804)
GRK6 (human) = GRK6 (human) (UniProt P43250)
DYRK1B (human) = DYRK1B (human) (UniProt Q9Y463)
MERTK (human) = MERTK (human) (UniProt Q12866)
SLK (human) = SLK (human) (UniProt Q9H2G2)
NEK11 (human) = NEK11 (human) (UniProt Q8NG66)
NEK11 (human), sequence (Q8NG66 whole entry, looked up): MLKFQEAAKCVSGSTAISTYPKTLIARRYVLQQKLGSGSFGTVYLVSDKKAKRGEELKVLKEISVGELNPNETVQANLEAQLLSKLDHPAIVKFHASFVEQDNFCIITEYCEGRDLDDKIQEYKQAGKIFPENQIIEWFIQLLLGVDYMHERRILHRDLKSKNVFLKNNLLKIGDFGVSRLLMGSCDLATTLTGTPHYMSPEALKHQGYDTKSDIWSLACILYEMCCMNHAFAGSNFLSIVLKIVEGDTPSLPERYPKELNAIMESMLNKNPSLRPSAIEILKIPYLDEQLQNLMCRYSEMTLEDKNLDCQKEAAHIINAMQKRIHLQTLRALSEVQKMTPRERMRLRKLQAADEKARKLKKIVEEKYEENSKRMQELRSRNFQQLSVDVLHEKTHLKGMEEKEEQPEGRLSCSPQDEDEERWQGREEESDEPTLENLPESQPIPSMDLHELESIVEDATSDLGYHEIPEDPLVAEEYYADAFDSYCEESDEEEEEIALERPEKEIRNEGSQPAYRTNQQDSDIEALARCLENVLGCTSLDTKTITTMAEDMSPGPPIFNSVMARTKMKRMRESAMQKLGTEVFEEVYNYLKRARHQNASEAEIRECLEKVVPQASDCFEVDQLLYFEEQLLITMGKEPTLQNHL

TEC (human) = TEC (human) (UniProt P42680)
SGK3 (human) = SGK3 (human) (UniProt Q96BR1)
CSNK2A2 (human) = CSNK2A2 (human) (UniProt P19784)
MAP4K4 (human) = MAP4K4 (human) (UniProt O95819)
FGFR3 (human) = FGFR3 (human) (UniProt P22607)
AURKA (human) = AURKA (human) (UniProt O14965)
CDK6 CCND3 (human) = CDK6 CCND3 (human) (UniProt P30281+Q00534)

FGR (human), sequence (P09769 whole entry, looked up): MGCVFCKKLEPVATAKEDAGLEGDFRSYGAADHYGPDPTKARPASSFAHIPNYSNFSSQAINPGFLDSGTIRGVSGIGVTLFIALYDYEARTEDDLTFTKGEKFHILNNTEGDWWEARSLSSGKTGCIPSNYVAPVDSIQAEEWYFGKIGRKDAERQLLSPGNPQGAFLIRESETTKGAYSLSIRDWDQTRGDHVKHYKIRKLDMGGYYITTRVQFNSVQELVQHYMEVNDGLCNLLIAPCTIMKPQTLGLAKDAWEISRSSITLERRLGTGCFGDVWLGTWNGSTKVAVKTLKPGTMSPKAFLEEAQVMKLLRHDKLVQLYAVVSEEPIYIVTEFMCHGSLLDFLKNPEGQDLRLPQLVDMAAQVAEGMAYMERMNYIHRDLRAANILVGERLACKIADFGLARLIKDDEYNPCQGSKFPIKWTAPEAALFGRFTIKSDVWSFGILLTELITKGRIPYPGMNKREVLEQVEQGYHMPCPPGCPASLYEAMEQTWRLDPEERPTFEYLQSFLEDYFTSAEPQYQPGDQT

CN[C@@H]1C[C@H]2O[C@@](C)([C@@H]1OC)n1c3ccccc3c3c4c(c5c6ccccc6n2c5c31)C(=O)NC4
residual activity (DMPK (human)): 4.83% | residual activity (FGR (human)): 0.266% | residual activity (FRK (human)): 5.5% | residual activity (STK4 (human)): -0.197% | residual activity (BRSK2 (human)): 3.53% | residual activity (NEK4 (human)): 46.8% | residual activity (DAPK3 (human)): 1.91% | residual activity (NEK1 (human)): 3.99% | residual activity (CSK (human)): 8.01%

COc1cc2c(Nc3ccc(Br)cc3F)ncnc2cc1OCC1CCN(C)CC1
residual activity (ROCK1 (human)): 99.4% | residual activity (NTRK2 (human)): 93.2% | residual activity (CLK2 (human)): 89.7% | residual activity (DMPK (human)): 94.6% | residual activity (HIPK4 (human)): 100% | residual activity (FGR (human)): 30% | residual activity (MAP3K10 (human)): 102% | residual activity (CSNK1D (human)): 94.4% | residual activity (EPHA5 (human)): 54.4% | residual activity (CHEK2 (human)): 62.1% | residual activity (STK24 (human)): 104% | residual activity (HIPK2 (human)): 99.4% | residual activity (FRK (human)): 79.5% | residual activity (STK4 (human)): 103% | residual activity (BRSK2 (human)): 103% | residual activity (GSK3B (human)): 101% | residual activity (PRKCB1 (human)): 89.1% | residual activity (PRKCD (human)): 103% | residual activity (ERBB2 (human)): 72.2% | residual activity (NEK4 (human)): 102% | residual activity (DAPK3 (human)): 90.3% | residual activity (FES (human)): 104% | residual activity (PRKCH (human)): 117% | residual activity (JAK2 JH1 JH2 (human)): 102% | residual activity (WEE1 (human)): 95.1% | residual activity (NEK1 (human)): 123% | residual activity (PRKCI (human)): 88.1% | residual activity (BMX (human)): 88.4% | residual activity (STK10 (human)): 21.3% | residual activity (GRK6 (human)): 104% | residual activity (DYRK1B (human)): 93% | residual activity (CSK (human)): 54.4% | residual activity (MERTK (human)): 47.9% | residual activity (SLK (human)): 73.9% | residual activity (NEK11 (human)): 103% | residual activity (TEC (human)): 91.6% | residual activity (SGK3 (human)): 97.9% | residual activity (CSNK2A2 (human)): 96.5% | residual activity (MAP4K4 (human)): 79.8%

Nc1ncnc2c1cnn2-c1ccccc1
residual activity (ROCK1 (human)): 93.8% | residual activity (NTRK2 (human)): 88.7% | residual activity (CLK2 (human)): 91.4% | residual activity (DMPK (human)): 106% | residual activity (HIPK4 (human)): 86.3% | residual activity (FGR (human)): 93.8% | residual activity (MAP3K10 (human)): 88.6% | residual activity (CSNK1D (human)): 79.5% | residual activity (EPHA5 (human)): 95.6% | residual activity (CHEK2 (human)): 95.5% | residual activity (STK24 (human)): 96.3% | residual activity (FGFR3 (human)): 97.9% | residual activity (HIPK2 (human)): 103% | residual activity (FRK (human)): 101% | residual activity (STK4 (human)): 96.8% | residual activity (BRSK2 (human)): 95.3% | residual activity (GSK3B (human)): 91.6% | residual activity (PRKCB1 (human)): 95.2% | residual activity (PRKCD (human)): 93% | residual activity (ERBB2 (human)): 107% | residual activity (NEK4 (human)): 98.7% | residual activity (DAPK3 (human)): 103% | residual activity (FES (human)): 99.7% | residual activity (PRKCH (human)): 94.8% | residual activity (JAK2 JH1 JH2 (human)): 91.6% | residual activity (WEE1 (human)): 90% | residual activity (NEK1 (human)): 62.4% | residual activity (PRKCI (human)): 97.3% | residual activity (BMX (human)): 96.8% | residual activity (STK10 (human)): 95.4% | residual activity (GRK6 (human)): 92.3% | residual activity (DYRK1B (human)): 93% | residual activity (CSK (human)): 86.8% | residual activity (MERTK (human)): 94.3% | residual activity (SLK (human)): 98% | residual activity (NEK11 (human)): 107% | residual activity (AURKA (human)): 91.9% | residual activity (TEC (human)): 103% | residual activity (SGK3 (human)): 92.3% | residual activity (CDK6 CCND3 (human)): 92.2% | residual activity (MAP4K4 (human)): 94.4%

O=c1c(-c2ccc(F)cc2)c(-c2ccncc2)[nH]n1-c1ccc(Cl)cc1
residual activity (ROCK1 (human)): 109% | residual activity (NTRK2 (human)): 88.5% | residual activity (CLK2 (human)): 99% | residual activity (DMPK (human)): 87.6% | residual activity (HIPK4 (human)): 94.6% | residual activity (FGR (human)): 87.4% | residual activity (MAP3K10 (human)): 88.1% | residual activity (CSNK1D (human)): 26.7% | residual activity (EPHA5 (human)): 106% | residual activity (CHEK2 (human)): 91.4% | residual activity (STK24 (human)): 111% | residual activity (FGFR3 (human)): 88.1% | residual activity (HIPK2 (human)): 89% | residual activity (FRK (human)): 78.5% | residual activity (STK4 (human)): 90% | residual activity (BRSK2 (human)): 90.8% | residual activity (GSK3B (human)): 91.6% | residual activity (PRKCB1 (human)): 84.7% | residual activity (PRKCD (human)): 92.6% | residual activity (ERBB2 (human)): 103% | residual activity (NEK4 (human)): 93.9% | residual activity (DAPK3 (human)): 94.7% | residual activity (FES (human)): 92.3% | residual activity (PRKCH (human)): 89% | residual activity (JAK2 JH1 JH2 (human)): 95.1% | residual activity (WEE1 (human)): 81.6% | residual activity (NEK1 (human)): 78.7% | residual activity (PRKCI (human)): 96.2% | residual activity (BMX (human)): 95.8% | residual activity (STK10 (human)): 81.9% | residual activity (GRK6 (human)): 90.1% | residual activity (DYRK1B (human)): 92.2% | residual activity (CSK (human)): 86.1% | residual activity (MERTK (human)): 82.7% | residual activity (SLK (human)): 98.2% | residual activity (NEK11 (human)): 104% | residual activity (AURKA (human)): 94% | residual activity (TEC (human)): 112% | residual activity (SGK3 (human)): 100% | residual activity (CDK6 CCND3 (human)): 93.7% | residual activity (MAP4K4 (human)): 93.5%
